{"source": "patent US20250346602A1", "about": "“LACTAM SUBSTITUTED IMIDAZOPYRIDAZINE IL-17A MODULATORS AND USES THEREOF” (DICE ALPHA, INC., priority 2022, published 2025)", "data": [{"molecular_target": "T1, IL-17A/A (Homo sapiens, UniProt Q16552)", "T1 construct": "purchased Genscript Z03228", "T1 sequence (Q16552 24-155)": "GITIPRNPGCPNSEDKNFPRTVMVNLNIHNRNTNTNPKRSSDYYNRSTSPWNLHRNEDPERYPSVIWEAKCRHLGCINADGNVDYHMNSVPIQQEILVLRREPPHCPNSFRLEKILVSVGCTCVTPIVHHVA", "experiment": "IL-17A/A HEK-Blue cell assay", "assay_type": "cell-based", "settings": "HEK-Blue IL-17A reporter cell line (HEK 293), IL-17A/A stimulation, 20 hours incubation, SEAP read at A630", "method_in_brief": "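HEK293 reporter cells expressing IL-17RA, IL-17RC and Act1 were given titrated compound (top final 10, 1 or 0.3 uM; 0.1% DMSO) right before IL-17A/A and incubated 20 hours. NFκB-driven SEAP in the media was read at A630 with Quanti-Blue, and IC50 came from a 4-parameter nonlinear fit.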", "units": {"IC50": "nM"}, "values": [{"molecule": "CCn1nccc1C(=O)N[C@H](c1cn2nc(CC3C[C@@H](C(F)(F)F)NC3=O)ccc2n1)C1CCC(F)(F)CC1", "note": "(stereo partly drawn) [Compound 7, N-((1S)-(4,4-difluorocyclohexyl)(6-(((5S)-2-oxo-5-(trifluoromethyl)pyrrolidin-3-yl)methyl)imidazo[1,2-b]pyridazin-2-yl)methyl)-1-ethyl-1H-pyrazole-5-carboxamide]", "IC50": "100 to 1000"}, {"molecule": "CCn1nccc1C(=O)N[C@H](c1cn2nc(CC3C[C@@H](C(F)(F)F)CNC3=O)ccc2n1)C1CCC2(CC1)CC2", "note": "(single isomer, unassigned) [Compound 188]", "IC50": "100 to 1000"}, {"molecule": "CCn1nccc1C(=O)NC(c1cn2nc(CC3C[C@@H](C(F)(F)F)CNC3=O)ccc2n1)C1CCC2CC2CC1", "note": "(single isomer, unassigned) [Compound 176]", "IC50": "< 100"}, {"molecule": "CCn1nccc1C(=O)N[C@H](c1cn2nc(CC3C[C@@H](C(F)(F)F)NC3=O)ccc2n1)C1CCCCCC1", "note": "(single isomer, unassigned) [Compound 6]", "IC50": "> 1000"}, {"molecule": "CCn1nccc1C(=O)N[C@H](c1cn2nc(CC3C[C@@H](C(F)(F)F)CNC3=O)c(COC)cc2n1)C1CCC(F)(F)CC1", "note": "(stereo partly drawn) [Compound 84, N-((1S)-(4,4-difluorocyclohexyl)(7-(methoxymethyl)-6-(((5R)-2-oxo-5-(trifluoromethyl)piperidin-3-yl)methyl)imidazo[1,2-b]pyridazin-2-yl)methyl)-1-ethyl-1H-pyrazole-5-carboxamide]", "IC50": "100 to 1000"}]}]}
